# How the values were obtained:
# [1] = target: T1, PD-1/PD-L1 interaction (Homo sapiens, UniProt Q9NZQ7); experiment: HTRF-based PD-1/PD-L1 binding assay; details: for inhibition at 0.1 µM: 0.1 μM compound, read-out: Inhibitory Rate (%) 0.1 μM; for inhibition at 0.1 µM / inhibition at 1 µM / IC50: HTRF; for inhibition at 1 µM: 1 μM compound, read-out: Inhibitory Rate (%) 1 μM; for IC50: two independent experiments; for LE: LE = −1.35 logIC50/Nheavy atoms (HTRF IC50); for decrease in activity as compared with A9: HTRF IC50 ratio
# T1 construct: purchased Cisbio 64ICP01PEG
# T1 sequence (Q9NZQ7 19-238 limits assumed): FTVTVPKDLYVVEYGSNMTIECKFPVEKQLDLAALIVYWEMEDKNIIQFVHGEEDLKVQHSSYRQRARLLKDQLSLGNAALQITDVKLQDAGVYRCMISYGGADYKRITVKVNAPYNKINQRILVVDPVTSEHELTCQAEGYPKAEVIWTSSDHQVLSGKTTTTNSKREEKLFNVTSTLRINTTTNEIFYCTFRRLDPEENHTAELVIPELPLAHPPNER
SMILES,inhibition at 0.1 µM [1],inhibition at 1 µM [1],IC50 [1],LE [1],melting point,decrease in activity as compared with A9 [1]
"Cc1ccccc1-c1cccc(OCCCN2CCC(O)CC2)c1C.Cl [Compound A1, 1-(3-((2,2′-Dimethyl-[1,1′-biphenyl]-3-yl)oxy)propyl)piperidin-4-ol hydrochloride]",56%,90%,0.114 µM,0.38,,
"Cc1c(CN2CCC(N3CCC(O)CC3)CC2)cccc1-c1ccccc1F [Compound A2, 1′-((2′-Fluoro-2-methyl-[1,1′-biphenyl]-3-yl)methyl)-[1,4′-bipiperidin]-4-ol]",8.5%,6.7%,,,110 to 113 °C,
"COc1cc(-c2cccc(-c3ccccc3F)c2C)ccc1CN1CCC(O)CC1 [Compound A3, 1-((2″-Fluoro-3-methoxy-2′-methyl-[1,1′:3′,1″-terphenyl]-4-yl)methyl)piperidin-4-ol]",74.5%,96.2%,0.0184 µM,0.35,61.5 to 63.5 °C,
"COc1nc(-c2cccc(-c3ccccc3F)c2C)ccc1CN1CCC(O)CC1 [Compound A4, 1-((6-(2′-Fluoro-2-methyl-[1,1′-biphenyl]-3-yl)-2-methoxypyridin-3-yl)methyl)piperidin-4-ol]",71%,98%,0.0219 µM,0.36,84 to 86 °C,
"COc1nc(-c2cccc(-c3ccccc3F)c2C)ccc1CNC1CCC(O)CC1 (stereo not shown) [Compound A5, 4-(((6-(2′-Fluoro-2-methyl-[1,1′-biphenyl]-3-yl)-2-methoxypyridin-3-yl)methyl)amino)cyclohexan-1-ol]",,,0.0143 µM,0.35,80 to 82 °C,
"COc1nc(-c2cccc(-c3ccccc3F)c2C)ccc1CN1CCCC(C(N)=O)C1 (stereo not shown) [Compound A6, 1-((6-(2′-Fluoro-2-methyl-[1,1′-biphenyl]-3-yl)-2-methoxypyridin-3-yl)methyl)piperidine-3-carboxamide]",,,0.121 µM,0.30,88 to 91 °C,
"COc1nc(-c2cccc(-c3ccccc3F)c2C)ccc1CN1CCC(C(N)=O)CC1 [Compound A7, 1-((6-(2′-Fluoro-2-methyl-[1,1′-biphenyl]-3-yl)-2-methoxypyridin-3-yl)methyl)piperidine-4-carboxamide]",,,0.0107 µM,0.34,194 to 196 °C,

# Second part, the compound after the results:
inhibition at 0.1 µM [1],inhibition at 1 µM [1],IC50 [1],LE [1],melting point,decrease in activity as compared with A9 [1],SMILES
,,0.0206 µM,0.33,218 to 220 °C,,"COc1nc(-c2cccc(-c3ccccc3F)c2C)ccc1CN1CCC(C(=O)O)CC1 [Compound A8, 1-((6-(2′-Fluoro-2-methyl-[1,1′-biphenyl]-3-yl)-2-methoxypyridin-3-yl)methyl)piperidine-4-carboxylic acid]"
,,0.0105 µM,0.38,70 to 73 °C,more than 10 fold,COc1nc(-c2cccc(-c3ccccc3C)c2C)ccc1CNCCC(N)=O [Compound A10]
,,0.0515 µM,0.31,50.5 to 53.5 °C,more than 10 fold,COc1nc(-c2cccc(-c3ccccc3C(F)(F)F)c2C)ccc1CNCCC(N)=O [Compound A12]
,,0.06 µM,0.33,113 to 115 °C,,COc1nc(-c2cccc(-c3ccc(F)cc3F)c2C)ccc1CNCCC(N)=O [Compound A16]
,,0.866 µM,0.28,122 to 124 °C,,COc1nc(-c2cccc(-c3ccc(Cl)cc3F)c2C)ccc1CNCCC(N)=O [Compound A17]
,,0.791 µM,0.25,137 to 139 °C,,COc1nc(-c2cccc(-c3ccc(C(F)(F)F)cc3F)c2C)ccc1CNCCC(N)=O [Compound A18]

# Source: article PMC8199613, “Discovery of Novel Small-Molecule Inhibitors of PD-1/PD-L1 Interaction via Structural Simplification Strategy” (Molecules, 2021)
